Numbers after ± are expanded uncertainties.
Columns and labels:
[1] = Molar enthalpy of transition or fusion; conditions: Crystal; Adiabatic calorimetry

Cc1ccc2nc(C)ccc2c1 [2,6-dimethylquinoline]
Liquid
Conditions | vapor or sublimation pressure [kPa]
336.99 K, Inclined piston gauge | 0.0375 ± 0.0008
339.98 K, Inclined piston gauge | 0.0461 ± 0.0009
349.98 K, Inclined piston gauge | 0.0877 ± 0.0009
359.98 K, Inclined piston gauge | 0.1589 ± 0.0009
369.98 K, Inclined piston gauge | 0.2786 ± 0.001
379.97 K, Inclined piston gauge | 0.4711 ± 0.0012
389.97 K, Inclined piston gauge | 0.7716 ± 0.0016
399.97 K, Inclined piston gauge | 1.227 ± 0.002
404.97 K, Inclined piston gauge | 1.532 ± 0.0024
409.97 K, Inclined piston gauge | 1.899 ± 0.0028
411.21 K, Twin ebulliometer | 2 ± 0.0082
414.96 K, Inclined piston gauge | 2.34 ± 0.0031
428.45 K, Twin ebulliometer | 3.987 ± 0.0083
436.24 K, Twin ebulliometer | 5.329 ± 0.009
447.73 K, Twin ebulliometer | 7.992 ± 0.0096
456.33 K, Twin ebulliometer | 10.65 ± 0.011
463.33 K, Twin ebulliometer | 13.33 ± 0.012
470.57 K, Twin ebulliometer | 16.66 ± 0.013
476.57 K, Twin ebulliometer | 19.93 ± 0.015
484.49 K, Twin ebulliometer | 25.02 ± 0.017
492.47 K, Twin ebulliometer | 31.19 ± 0.02
500.45 K, Twin ebulliometer | 38.56 ± 0.023
508.5 K, Twin ebulliometer | 47.36 ± 0.027
516.61 K, Twin ebulliometer | 57.81 ± 0.031
524.76 K, Twin ebulliometer | 70.1 ± 0.036
532.96 K, Twin ebulliometer | 84.5 ± 0.042
541.22 K, Twin ebulliometer | 101.3 ± 0.05
549.51 K, Twin ebulliometer | 120.76 ± 0.06
557.86 K, Twin ebulliometer | 143.19 ± 0.06
566.25 K, Twin ebulliometer | 168.98 ± 0.07
574.7 K, Twin ebulliometer | 198.44 ± 0.08
583.18 K, Twin ebulliometer | 231.96 ± 0.1
591.71 K, Twin ebulliometer | 269.97 ± 0.1

Conditions | Critical temperature [K] | Triple point temperature [K] | mass density [kg/m3]
348.13 K, Liquid | – | – | 995.1 ± 2
373.12 K, Liquid | – | – | 975.8 ± 2
398.12 K, Liquid | – | – | 956.9 ± 2
423.12 K, Liquid | – | – | 938.7 ± 5
448.11 K, Liquid | – | – | 914.4 ± 1.9
473.11 K, Liquid | – | – | 894 ± 1.9
498.11 K, Liquid | – | – | 872.2 ± 1.9
523.11 K, Liquid | – | – | 849.2 ± 2
Crystal, Adiabatic calorimetry | – | 330.84 ± 0.05 | –
Liquid, DTA | 786 ± 2 | – | –

Conditions | Molar enthalpy of transition or fusion [kcal/mol]
[1] | 4.88 ± 0.00406

Source: the NIST ThermoML archive (doi:10.1016/j.jct.2006.10.012)
